In this test the test system is rhMC-4R. As to the kind of experiment: Competitive binding assay, [125I]-NDP alpha MSH, membranes from rhesus MC-4R transfected cells. To be noted: read-out: IC50 rhMC-4R.

This note sets out measurements from patent US7029865B2, “DNA molecules encoding the melanocortin 4 receptor protein from rhesus monkey” (Merck & Co., Inc., priority 1998, dated 2006).

In general, IC50 refers to the concentration that inhibits the measured activity by half.

Sequence of rhMC-4R (as listed by the source): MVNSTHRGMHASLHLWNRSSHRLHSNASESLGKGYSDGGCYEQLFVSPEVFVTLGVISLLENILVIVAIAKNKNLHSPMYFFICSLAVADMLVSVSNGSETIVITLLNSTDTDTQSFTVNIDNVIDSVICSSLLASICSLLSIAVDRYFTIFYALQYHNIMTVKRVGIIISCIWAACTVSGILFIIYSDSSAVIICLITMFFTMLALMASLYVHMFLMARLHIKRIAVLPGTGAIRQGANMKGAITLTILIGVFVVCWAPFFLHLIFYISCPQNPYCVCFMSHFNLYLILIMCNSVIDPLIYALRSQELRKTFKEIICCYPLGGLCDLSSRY
Experimental: Reactions were incubated for 1 hour without shaking and then filtered through 96-well filter plates (Packard corp.). Filters were washed three times with TNE buffer (50 mM Tris pH 7.4, 5 mM EDTA, 150 mM NaCl), dried and counted using Microscint-20 in a Topcount scintillation counter (Packard).
Membranes prepared from rhesus MC-4R transfected cells were evaluated alongside membranes prepared from human MC-4R, MC-4R, and MC-5R expressing cells.

NDP-alpha-MSH: the IC50 was found to be 1.3 nM.
